Measured values published in PubChem BioAssay (NCI).
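48-hour exposure; five concentrations; linearly interpolated endpoints. TGI: concentration producing complete growth inhibition.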

Tests used:
Assay in all cases: NCI anticancer screen, dose series, 48 h
DU-145 prostate = system: DU-145 prostate
HCC-2998 colon = system: HCC-2998 colon
UACC-62 melanoma = system: UACC-62 melanoma
SF-268 CNS = system: SF-268 CNS
OVCAR-5 ovarian = system: OVCAR-5 ovarian
ACHN renal = system: ACHN renal
HOP-92 NSCLC = system: HOP-92 NSCLC
OVCAR-3 ovarian = system: OVCAR-3 ovarian
HL-60(TB) leukemia = system: HL-60(TB) leukemia
SK-MEL-28 melanoma = system: SK-MEL-28 melanoma

Structure (SMILES) | TGI (DU-145 prostate) [µM] | TGI (HCC-2998 colon) [µM] | TGI (UACC-62 melanoma) [µM] | TGI (SF-268 CNS) [µM] | TGI (OVCAR-5 ovarian) [µM] | TGI (ACHN renal) [µM] | TGI (HOP-92 NSCLC) [µM] | TGI (OVCAR-3 ovarian) [µM] | TGI (HL-60(TB) leukemia) [µM] | TGI (SK-MEL-28 melanoma) [µM]
O=[N+]([O-])c1cc(Cl)ccc1S(=O)(=O)c1cc(Cl)cc2c1NCCC2 | > 100 | > 100 | 85.8 | > 100 | > 100 | > 100 | > 100 | > 100 | > 100 | > 100
CCOC(=O)C1=CN(C(=O)c2ccccc2)CCC1Cc1ccccc1 (stereo not given) | > 100 | 38.5 | 31.4 | > 100 | > 100 | 63.6 | 54.5 | > 100 | 32.2 | 63.3
O=C(CCC(=O)OCC1OC(O)(CC2OC(CO)C(O)C(O)C2O)C(O)C1O)OCc1ccccc1 (stereo not given) | > 100 | > 100 | > 100 | > 100 | > 100 | > 100 | > 100 | > 100 | > 100 | > 100
Cn1c(=O)c2[nH]c(-n3nc(-c4ccccc4)cc3N)nc2n(C)c1=O | 45 | > 100 | 27 | > 100 | > 100 | 37 | 74.9 | > 100 | 61.2 | 57.3
c1csc(-c2nnc(C34CC5CC(CC(C5)C3)C4)o2)c1 | > 100 | > 100 | > 100 | > 100 | > 100 | > 100 | 54.8 | 38.5 | 33.5 | > 100
CN1CCN(c2c(O)c3c(c(O)c2Cl)C(=O)C=CC3=O)CC1 | 3.19 | 3.99 | 2.82 | 3.72 | 2.93 | 0.806 | 0.598 | 1.47 | 0.332 | 2.51
c1ccc(-c2nc3ccccc3n3nnnc23)cc1 | > 100 | > 100 | > 100 | > 100 | > 100 | > 100 | > 100 | > 100 | > 100 | > 100
OCCNc1nc2c(N3CCCC3)nc(N3CCNCC3)nc2nc1NCc1ccccc1 | 24.2 | 29.1 | 31.3 | 34.1 | 24.7 | 28.9 | 21.8 | 18.6 | 32.8 | 32.5
CN(C)/C=N/S(=O)(=O)c1nn2c(C=O)c(-c3cc4ccccc4oc3=O)nc2s1 | > 36.6 | 48.5 | 27.5 | > 44.9 | > 84.3 | 5.9 | 19.2 | 17.3 | 4.05 | 12.1
COc1cc(C2C3=C(N=C4SC(C(C)=O)=C(C)N42)c2ccccc2CC3)cc(OC)c1OC (stereo not given) | > 100 | > 100 | > 100 | > 100 | > 100 | > 100 | > 100 | > 100 | 81.4 | > 100
Cc1ccnc2sc3ccccc3c(=O)c12 | > 100 | > 100 | 63 | > 100 | > 100 | > 100 | > 100 | > 100 | > 100 | > 100
CSc1nc(=O)c(C#N)c(-c2ccccc2)n1C1OC(COC(C)=O)C(OC(C)=O)C(OC(C)=O)C1OC(C)=O (stereo not given) | > 100 | > 100 | > 100 | > 100 | > 100 | > 100 | > 100 | > 100 | > 100 | > 100
CC(C)C(/C=C/c1ccccc1)=N\NC(=S)NN | > 100 | > 100 | > 100 | > 100 | > 100 | > 100 | > 100 | > 88.8 | > 100 | > 100
CC(C)(CN1CCCCC1)C(=O)/C=C/c1c(Cl)cccc1Cl | 2.44 | 3.23 | 2.61 | 3.88 | 2.97 | 3.28 | 2.34 | 2.4 | 4.37 | 3.2
N#CI1OC(C(F)(F)F)(C(F)(F)F)c2ccccc21 | 38.4 | 36.1 | 38.8 | 73.9 | 36.6 | 36.9 | 42.5 | 29.2 | > 100 | 37.4
COC1=CCC2=C(CCN(C(=O)C3CCC3)C2Cc2ccc(OC)c(O)c2)C1 (stereo not given) | 51.9 | 41.3 | > 100 | > 100 | 92 | > 100 | 79.4 | 27.4 | 51.5 | > 100
C/C(NC(=O)c1ccccc1)=C(/C(=O)c1ccccc1)[C@@H]1OC(C)(C)O[C@@H]1[C@H]1COC(C)(C)O1 | > 100 | 87.6 | > 100 | > 100 | > 100 | > 100 | 86.6 | > 100 | 43.8 | > 100
